From patent publication US12128013B2, “Toxic aldehyde related diseases and treatment” (Aldeyra Therapeutics, Inc., priority 2013, dated 2024)
“Also recorded” adds a separate entry of the source.

Tests used:
[1] = Reaction with MDA salt in glyceryl trioleate / Captisol-PBS / linoleic acid, monitored by LC/MS; conditions: 0.064 mmol compound and MDA, ambient temperature
Experimental: To five separate reaction vials was added Compounds 1, 2, 12, 14, and 16, respectively (0.064 mmol), MDA salt (22.7% MDA, 0.064 mmol), and glyceryl trioleate (600 mg). To the mixture was added 20 wt % Capitsol in aqueous PBS (˜2.5 ml), followed by linoleic acid (600 mg). The reaction mixture was stirred vigorously at ambient temperature and monitored by LC/MS. […] Other MDA adducts were also formed at different time points of the reactions.

[2] = Aldehyde trapping (FIG. 1), MDA
[3] = Aldehyde trapping (FIG. 1), HNE
[4] = test system: Primary rat cortical cultures; assay: LDH assay in primary rat cortical cultures; format: cell-based; conditions: 24 or 48 hours, various concentrations; FIG. 2
Experimental: Primary rat cortical cultures were placed in an incubator for 24 or 48 hours and treated with various concentrations of Compound 9. Then 20 μL of the culture media was removed for an LDH assay as described in Bergmeyer et al., Methods of Enzymatic Analysis, 3rd ed. (1983).

circulating cytokines = assay: LPS exposure in mice, ELISA of circulating cytokines; format: in vivo, Male C57BI/6 mice; conditions: single dose 30 minutes before LPS (20 mg/kg), blood two hours after LPS
Experimental: Male C57BI/6 mice were dosed with Compound 9 30 minutes before they were exposed to LPS (20 mg/kg). Two hours after the LPS exposure, blood was collected from the mice and an ELISA was conducted to determine the amount of circulating cytokines.

contact dermatitis = assay: Contact dermatitis, phorbol myristate acetate (PMA) model, pinna thickness; format: in vivo, mice; conditions: single dose, FIG. 5A
Experimental: To determine the efficacy of Compound 9 in treating contact dermatitis, phorbol myristate acetate (“PMA”) was applied topically (2.5 μg in 20 μL) to both the anterior and posterior portions of the right pinna of mice (N=10 per group). As a control, the left pinna received 20 μL of ethanol (PMA excipient) to both the anterior and posterior portions. Six hours after the PMA application, both the right and left pinna thickness was determined. Measurements were determined at least twice from the same region of both ears, with care taken not to include hair or folded pinna.

allergic dermatitis = assay: Allergic dermatitis, oxazolone (OXL) model, pinna thickness; format: in vivo, mice; conditions: single dose 100 mg/kg intraperitoneally, FIG. 5B
Experimental: To measure the efficacy of Compound 9 in treating allergic dermatitis, oxazolone (“OXL”) was applied (1.5%, 100 μL in acetone) to the shaved abdomens of mice. Seven days later, the thickness of the pinna of the OXL treated mice was determined. Then Compound 9 (100 mg/kg) or the vehicle (i.e., Captisol) was administered intraperitoneally to mice followed by topical application of OXL (1%, 20 μL) 30 min later to both the anterior and posterior portions of the right pinna. As a control, the left pinna received 20 μL of acetone (OXL excipient) to both the anterior and posterior portions. The thickness of the pinna of both ears was measured again 24 hours later. N=10 per group.

[5] = test system: radiation induced fibrosis; assay: Radiation induced fibrosis after 40 Gy irradiation; format: in vivo; conditions: hamsters subject to 40 Gy irradiation; FIG. 7
[6] = in the presence of peptides and phospholipids

Cc1ccc(-c2nc3cc(N)c(C(C)(C)O)c(Cl)c3o2)cc1 [Compound 12, 2-(5-amino-7-chloro-2-p-tolylbenzoxazol-6-yl)propan-2-ol]
form of the MDA adducts [1]: a majority of the adducts were bis-oxaminal
reaction with MDA / trapping of MDA (formation of MDA adducts) [1]: quickly react with MDA to form MDA adducts; also recorded: reacts and traps MDA

CC(C)(O)c1nc2ccc(Cl)cc2cc1N [Compound 9]
form of the MDA adducts [1]: in both the imine form and the oxaminal form
reaction with MDA / trapping of MDA (formation of MDA adducts) [1]: reacted with MDA and formed MDA adducts; also recorded: reacts and traps MDA
reaction with and trapping of MDA ([2]; FIG. 1): rapidly reacts with and traps; also recorded: decrease aldehyde (e.g., MDA and HNE) concentration in a time-dependent manner
trapping of MDA [2, 6]: rapidly traps MDA and HNE
reaction with and trapping of HNE ([3]; FIG. 1): rapidly reacts with and traps; also recorded: decrease aldehyde (e.g., MDA and HNE) concentration in a time-dependent manner
trapping of HNE [3, 6]: rapidly traps MDA and HNE
aldehyde-mediated cell death in neurons (LDH assay) [4]: prevented aldehyde-mediated cell death in neurons
other chemokines, such as eotaxin, IL-12, IP-10, LIF, MCP-1, MIG, MIP, and RANTES (circulating cytokines): decreased
anti-inflammatory cytokines, such as IL-10 (circulating cytokines; FIG. 4): elevated
proinflammatory cytokines, such as IL-5 and IL-1β, IL-17, and TNF (circulating cytokines; FIGS. 3 and 4): broad downregulation; also recorded: reduction
efficacy against contact dermatitis (contact dermatitis): effective
efficacy against allergic dermatitis (allergic dermatitis): effective
radiation induced fibrosis [5]: diminishes radiation induced fibrosis

CC(C)(O)c1c(N)cnc2ccc(Cl)cc12 [Compound 2, 2-(3-amino-6-chloroquinolin-4-yl)propan-2-ol]
reaction with MDA / trapping of MDA (formation of MDA adducts) [1]: quickly react with MDA to form MDA adducts; also recorded: reacts and traps MDA

CC(C)(O)c1c(N)cnc2ccc(Cl)c(F)c12 [Compound 1, 2-(3-amino-6-chloro-5-fluoroquinolin-4-yl)propan-2-ol]
form of the MDA adducts [1]: a majority of the adducts were bis-oxaminal
reaction with MDA / trapping of MDA (formation of MDA adducts) [1]: quickly react with MDA to form MDA adducts; also recorded: reacts and traps MDA

CC(C)(O)c1c(N)cc2onc(C3CC3)c2c1Cl [Compound 14, 2-(6-amino-4-chloro-3-cyclopropylbenzisoxazol-5-yl)propan-2-ol]
form of the MDA adducts [1]: a majority of the adducts were bis-oxaminal
reaction with MDA / trapping of MDA (formation of MDA adducts) [1]: quickly react with MDA to form MDA adducts; also recorded: reacts and traps MDA

CC(C)(O)c1c(N)cc(Cl)c2c(C3CC3)noc12 [Compound 16, 2-(6-amino-4-chloro-3-cyclopropylbenzisoxazol-7-yl)propan-2-ol]
form of the MDA adducts [1]: a majority of the adducts were bis-oxaminal
reaction with MDA / trapping of MDA (formation of MDA adducts) [1]: quickly react with MDA to form MDA adducts; also recorded: reacts and traps MDA
